Tests used:
[1] = biological target: T1, human cloned 5-HT6 receptors (Homo sapiens, UniProt P50406); experiment: 5-HT6 receptor affinity, procedures outlined in WO98/27081; format: binding; conditions: read-out: pKi values at human cloned 5-HT6 receptors (converted)
T1 construct: expressed in transfected cells
Source text: Compounds can be tested following the procedures outlined in WO98/27081.

T1 sequence (P50406 whole entry): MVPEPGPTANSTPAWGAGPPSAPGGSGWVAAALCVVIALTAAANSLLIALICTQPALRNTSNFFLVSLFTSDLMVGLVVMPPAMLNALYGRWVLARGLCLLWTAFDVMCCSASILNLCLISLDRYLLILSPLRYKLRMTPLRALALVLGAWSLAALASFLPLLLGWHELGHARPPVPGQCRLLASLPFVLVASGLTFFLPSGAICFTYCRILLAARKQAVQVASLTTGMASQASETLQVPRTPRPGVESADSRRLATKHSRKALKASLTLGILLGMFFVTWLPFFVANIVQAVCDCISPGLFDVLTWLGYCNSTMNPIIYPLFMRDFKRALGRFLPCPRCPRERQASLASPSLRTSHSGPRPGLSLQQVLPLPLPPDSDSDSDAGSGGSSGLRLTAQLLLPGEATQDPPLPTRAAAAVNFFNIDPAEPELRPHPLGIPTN

melting point | Ki [1] | Compound
210 to 211 °C |  | Cl.O=S(=O)(Nc1ccc2c(c1)CCNCC2)c1ccc(Cl)cc1OC(F)(F)F [Example E12, 7-(4-Chloro-2-trifluoromethoxy)phenylsulfonamido-2,3,4,5-tetrahydro-1H-benzo[d]azepine, hydrochloride]
 | < 3.16 nM | O=S(=O)(Nc1ccc2c(c1)CCNCC2)c1ccc(Br)cc1OC(F)(F)F [Example E6, 7-(4-Bromo-2-trifuoromethoxy)phenylsulfonamido-2,3,4,5-tetrahydro-1H-benzo[d]azepine]
231 to 233 °C |  | Cl.O=S(=O)(Nc1ccc2c(c1)CCNCC2)c1ccc(Br)cc1OC(F)(F)F [Example E11, 7-(4Bromo-2-trifluoromethoxy)phenylsulfonamido-2,3,4,5-tetrahydro-1H-benzo[d]azepine, hydrochloride]
 | < 3.16 nM | O=S(=O)(Nc1ccc2c(c1)CCNCC2)c1ccc(Cl)cc1OC(F)(F)F [Example E10, 7(4-Chloro-2-trifluoromethoxy)phenylsulfonamido-2,3,5-tetrahydro-1H-benzo[d]azepine]
